Measured values published in paper PMC9589286, “Ruthenium polypyridine complexes with triphenylamine groups as antibacterial agents against Staphylococcus aureus with membrane-disruptive mechanism” (Frontiers in Chemistry, 2022).

Experiments:
[1] = system: Staphylococcus aureus; assay: Membrane permeability, ONPG hydrolysis; format: cell-based; details: Ru-3 2 or 4 μg/ml vs vancomycin 2 μg/ml
Protocol: O-nitrobenzene-β-D-galactopyranoside (ONPG) was the substrate of intracellular ß-galactosidase, that was used to determine the permeability of Staphylococcus aureus cell membrane. Staphylococcus aureus was cultured to logarithmic phase, then washed and cultured in M9 lactose medium, in which lactose was used as the only carbon source of a single colony and stayed overnight at 37°C. After washing three times with PBS, the culture was diluted to OD600 = 0.3 (PBS). […] The hydrolysis of ONPG to o-nitrophenol over time was monitored by UV every 15 min at 415 nm. A similar procedure was used for untreated cells as control ([Xuan et al., 2021]).

[2] = Partition coefficient, shake flask 1-octanol/PBS; format: physicochemical
Protocol: The partition coefficients of all complexes were determined by standard shake flask method in 1-octanol and buffer liquid system ([Yang et al., 2021]). In brief, the octanol/water partition coefficient is obtained by the incubation of 2 ml of 25 μg ml^−1 ruthenium complex 1-octanol and 2 ml PBS samples. After shaking the solution for 6 h, the samples were stood for 2 h. The absorbance of octanol complex at 282 nm before and after oscillation was measured. The absorbance of 1-octanol before oscillation minus the absorbance of 1-octanol after oscillation is the absorbance of the complex in water. Each experiment was repeated three times. The partition coefficient is reported as the number of octanol divided by the number of water.

[3] = system: Staphylococcus aureus hemolysin; assay: Toxin (hemolysin) secretion, rabbit blood cell hemolysis by culture supernatant; format: cell-based
Protocol: Firstly, S. aureus was cultured overnight and diluted 1000 times with fresh TSB, then a mixture of Ru-3 of 1 μg ml^−1 or 2 μg ml^−1 and Staphylococcus aureus solution was cultured in a shaking Table at 37°C for 18 h. After culturing, centrifuging (5000 rpm, 2 min) Staphylococcus aureus solution. And rabbit blood cells were prepared with PBS buffer (washing rabbit blood three times). Blood cells were collected by centrifugation (2000 rpm, 2 min). Secondly, a mixture containing 1 ml PBS buffer, 150 μL supernatant and 25 μL blood cells was cultured at 37°C for 30 min. Then cultured supernatant was obtained by centrifugation (2000 rpm, room temperature, 2 min). Finally, the optical density of the supernatant was measured at 540 nm.

[4] = system: Staphylococcus aureus; assay: MBC determined by LB plates; format: cell-based; details: S. aureus, 24 h
Protocol: (§1) Antibacterial activity was evaluated by measuring MIC (minimum inhibitory concentration) and MBC (minimum bactericidal concentration) values. The MIC value was measured by the microdilution method using TSB broth with 96 well plates ([Carlsen et al., 1981]) and the MBC value was determined by LB plates. In brief, the overnight cultured bacteria were 1: 1000 diluted with fresh medium to get a bacterial suspension. After incubation at 37°C for 20 h, the growth of bacteria is monitored by observing the turbidity of the culture. The bacterial solution was diluted as above method and the complexes were incubated with bacterial solution for 2 h. Then 100 μL bacterial solution was taken for plate coating. The Staphylococcus aureus growth inhibition trend in the presence of complexes was obtained. The MBC values of complexes were determined by LB plates after culturing in the same method for 24 h. All experiments were controlled with sterile water and repeated in parallel at least three times.

[5] = system: Staphylococcus aureus biofilm; assay: Biofilm formation, crystal violet staining; format: cell-based
Protocol: 24 well plate was used for biofilm determination. The overnight cultured Staphylococcus aureus strain was diluted 1000 times with fresh TSB medium. Then 2 ml of that diluted bacterial solution was mixed with 500 µL Ru-3 of different concentrations in a 24 well plate. After incubation at 37°C for 48 h, the bacterial suspension was removed and the plate was washed three times with PBS. The adherent bacteria were dried overnight at 37°C and then dyed through 0.1% crystal violet solution. After 2 min, taking out the crystal violet solution and wash the plate with PBS again. And then, adding 1 ml acetic acid and 1 ml water, the formation of biofilm can be determined by monitoring the absorbance at 595 nm.

[6] = system: Staphylococcus aureus; assay: MIC by microdilution in TSB broth; format: cell-based; details: S. aureus, 37°C, 20 h
Protocol: as §1

[7] = system: Staphylococcus aureus; assay: DiSC3(5) and DAPI/PI fluorescence staining; format: cell-based; details: 4 μg ml^−1, 2 h
Protocol: Firstly, S. aureus was cultured in TSB medium to exponential phase. Exponential growth bacteria were collected by centrifugation at 5000 rpm for 2 min, then washed with PBS and diluted to OD600 value of 0.3. Secondly, Ru-3 (4 μg ml^−1) was added to the bacterial suspension solution and incubated at 37°C for 2 h, then the supernatant was removed by centrifuging. Thirdly, the bacterial was washed with PBS for three times and suspendedin 500 μL PBS. Subsequently, adding 20 μL DiSC3(5) (30 μM), incubating for 1 h under dark conditions. For DAPI and PI, adding 20 μL DAPI (10 μg ml^−1), incubating for 15 min under dark conditions. Next, adding 20 μL PI (15 μg ml^−1) in the same tube, and incubating for 15 min under dark conditions. After that, centrifuge, removing the supernatant. Eventually, suspending with 500 uL PBS and 20 μL samples were transfered on glass slides and observed under fluorescent cell imager.

[8] = system: Staphylococcus aureus; assay: In vivo antibacterial activity, mouse skin infection model; parameters: species or system mice; details: cream with 50 μg ml^−1, 4 times a day, after 4 days
Protocol: S. aureus was cultured in TSB medium to exponential phase. Bacterial precipitates were collected and washed with PBS three times by centrifugation, which was diluted to OD600 = 1 (1.02 × 10^8 CFU/ml) with sterile normal saline. The day before the infection, the hair on the back of the mice was shaved off. Then depilatory cream (Veet®) was used to remove the remaining hair. Subsequently, 100 μL S. aureus was injected in subcutaneous and the abscess formed after 12 h later. All mice infected with S. aureus were divided into two groups (n = 5 in each group), including control group and treatment group, Ru-3 (0.05 mg ml^−1), which was fully mixed in sterile cream. Afterwards, mouse abscesses were treated with creams containing Ru-3 4 times a day. After 10 days, the experiment was ended. The study was conducted in strict accordance with NIH guidelines for the care and use of laboratory animals (NIH Publication No. 85–23, revised in 1985), and was reviewed and approved by the institutional animal care and use Committee of Guangxi Normal University (Guilin, China).

Q: What does the source list for [Ru(dmb)2PMA] (PF6)2 [Ru-3]?
A: plasma membrane permeability (ONPG) [1]: better membrane permeability; LgP [2]: 1.79; logD o/w [2]: ca. 1.7885; Toxin reduced by ([3]; 1 μg ml^−1): 38%; Toxin reduced by ([3]; 2 μg ml^−1): 63%; MBC [4]: 32 µg/mL; biofilm formation reduced by ([5]; 1 μg ml^−1, 48 h): 27%; Nomalized Biofilm formation ([5]; 1 μg/mL): 73%; biofilm formation reduced by ([5]; 2 μg ml^−1, 48 h): 41%; Nomalized Biofilm formation ([5]; 2 μg/mL): 59%; MIC [6]: 4 µg/mL; DAPI/PI fluorescence [7]: blue and red fluorescence; membrane depolarization, DiSC3(5) fluorescence [7]: strong green fluorescence; degree of wound healing [8]: increased significantly
